Laboratory results: patent US9790230B2 (Hoffmann-La Roche Inc., priority 2015, dated 2017)
Where two headings read alike, the source gives them in different places.

Key:
rat TAAR1 = rat TAAR1 (Rattus norvegicus (Rat), UniProt Q923Y9); assay: Radioligand binding assay on rat TAAR1;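 further: membranes from HEK293 cells stably transfected with rat TAAR1, tritiated TAAR1 radioligand, 1 h incubation at 4 °C, nonspecific binding determined with excess unlabeled ligand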
mouse TAAR1 = mouse TAAR1 (Mus musculus (Mouse), UniProt Q923Y8); assay: Radioligand binding assay on mouse TAAR1
[1] = read-out: Ki (μM) rat, rat TAAR1, HEK-293 membranes, second value of cell mouse/rat
[2] = read-out: Ki (μM) mouse, mouse TAAR1, HEK-293 membranes, first value of cell mouse/rat

rat TAAR1, sequence (Q923Y9 whole entry): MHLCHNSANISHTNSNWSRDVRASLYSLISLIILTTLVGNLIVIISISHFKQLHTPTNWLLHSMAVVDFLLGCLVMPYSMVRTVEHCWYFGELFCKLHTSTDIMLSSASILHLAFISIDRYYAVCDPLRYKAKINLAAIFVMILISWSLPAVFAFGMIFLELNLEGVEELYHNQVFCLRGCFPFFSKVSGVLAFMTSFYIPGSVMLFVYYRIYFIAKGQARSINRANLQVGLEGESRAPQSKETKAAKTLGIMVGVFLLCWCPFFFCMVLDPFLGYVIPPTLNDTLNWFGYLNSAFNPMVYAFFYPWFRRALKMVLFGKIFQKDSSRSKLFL
mouse TAAR1, sequence (Q923Y8 whole entry): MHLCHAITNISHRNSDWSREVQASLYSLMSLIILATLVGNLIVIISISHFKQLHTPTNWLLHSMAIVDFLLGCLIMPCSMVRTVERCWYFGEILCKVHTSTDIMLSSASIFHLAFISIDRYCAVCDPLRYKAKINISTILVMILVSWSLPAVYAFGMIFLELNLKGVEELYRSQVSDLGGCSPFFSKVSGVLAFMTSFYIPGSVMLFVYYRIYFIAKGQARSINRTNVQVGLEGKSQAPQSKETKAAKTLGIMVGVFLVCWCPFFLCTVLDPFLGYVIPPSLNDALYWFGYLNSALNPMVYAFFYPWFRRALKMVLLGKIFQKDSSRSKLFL

| Ki (rat TAAR1) | Ki (mouse TAAR1) | SMILES | Ki (rat TAAR1; [1]) | Ki (mouse TAAR1; [2]) |
| --- | --- | --- | --- | --- |
| 0.0135 µM | 0.0054 µM | O=C(Nc1ccc([C@@H]2O[C@H]3CN[C@@H]2C3)cc1)c1ccc(C(F)(F)F)cn1 [Example 71, N-[4-[(1R,3S,4R)-2-Oxa-5-azabicyclo[2.2.1]heptan-3-yl]phenyl]-5-(trifluoromethyl)pyridine-2-carboxamide] | – | – |
| 0.0093 µM | 0.0153 µM | O=C(Nc1ccc([C@@H]2O[C@H]3CN[C@@H]2C3)cc1)c1ccc(C(F)(F)F)nc1 [Example 72, N-[4-[(1R,3S,4R)-2-Oxa-5-azabicyclo[2.2.1]heptan-3-yl]phenyl]-6-(trifluoromethyl)pyridine-3-carboxamide] | – | – |
| 0.857 µM | 0.0177 µM | O=C(COCC(F)(F)F)Nc1ccc([C@@H]2O[C@H]3CN[C@@H]2C3)cc1 [Example 73, N-[4-[(1R,3S,4R)-2-Oxa-5-azabicyclo[2.2.1]heptan-3-yl]phenyl]-2-(2,2,2-trifluoroethoxy)acetamide] | – | – |
| 0.239 µM | 0.0099 µM | CC(C)c1cc(C(=O)Nc2ccc([C@@H]3O[C@H]4CN[C@@H]3C4)cc2)[nH]n1 [Example 75, 3-Isopropyl-N-[4-[(1R,3S,4R)-2-oxa-5-azabicyclo[2.2.1]heptan-3-yl]phenyl]-1H-pyrazole-5-carboxamide] | – | – |
| 0.0842 µM | 0.0047 µM | CCc1n[nH]c(C(=O)Nc2ccc([C@@H]3O[C@H]4CN[C@@H]3C4)cc2)c1Cl [Example 76, 4-Chloro-3-ethyl-N-[4-[(1R,3S,4R)-2-oxa-5-azabicyclo[2.2.1]heptan-3-yl]phenyl]-1H-pyrazole-5-carboxamide] | – | – |
| 0.103 µM | 0.0042 µM | CCCc1n[nH]c(C(=O)Nc2ccc([C@@H]3O[C@H]4CN[C@@H]3C4)cc2)c1F [Example 78, 4-Fluoro-N-[4-[(1R,3S,4R)-2-oxa-5-azabicyclo[2.2.1]heptan-3-yl]phenyl]-3-propyl-1H-pyrazole-5-carboxamide] | – | – |
| 0.0841 µM | 0.006 µM | FC(F)(F)COc1ccnc(Nc2ccc([C@H]3O[C@@H]4CN[C@H]3C4)cc2)n1 [Example 79, N-[4-[(1S,3R,4S)-2-Oxa-5-azabicyclo[2.2.1]heptan-3-yl]phenyl]-4-(2,2,2-trifluoroethoxy)pyrimidin-2-amine] | – | – |
| 1.08 µM | 0.0077 µM | FC(F)(F)COc1nccc(Nc2ccc([C@H]3O[C@@H]4CN[C@H]3C4)cc2)n1 [Example 80, N-[4-[(1S,3R,4S)-2-Oxa-5-azabicyclo[2.2.1]heptan-3-yl]phenyl]-2-(2,2,2-trifluoroethoxy)pyrimidin-4-amine] | – | – |
| > 15 µM | 0.0172 µM | O=C(CCC(F)(F)F)Nc1ccc([C@H]2O[C@@H]3CN[C@H]2C3)cc1 [Example 84, 4,4,4-Trifluoro-N-[4-[(1S,3R,4S)-2-oxa-5-azabicyclo[2.2.1]heptan-3-yl]phenyl]butanamide] | – | – |
| > 1.45 µM | 0.145 µM | O=C(Nc1ccc(F)cc1)c1ccc([C@@H]2O[C@H]3CN[C@@H]2C3)cc1 [Example 87, N-(4-Fluorophenyl)-4-[(1R,3S,4R)-2-oxa-5-azabicyclo[2.2.1]heptan-3-yl]benzamide] | – | – |
| 0.0026 µM | 0.028 µM | CC(C)n1nc(OCC(F)(F)F)cc1C(=O)Nc1ccc([C@@H]2O[C@H]3CN[C@@H]2C3)cc1 [Example 89, 2-Isopropyl-N-[4-[(1R,3S,4R)-2-oxa-5-azabicyclo[2.2.1]heptan-3-yl]phenyl]-5-(2,2,2-trifluoroethoxy)pyrazole-3-carboxamide] | – | – |
| > 1.45 µM | 0.031 µM | O=C(CCC(F)(F)F)Nc1ccc([C@@H]2O[C@H]3CN[C@@H]2C3)cc1 [Example 91, 4,4,4-Trifluoro-N-[4-[(1R,3S,4R)-2-oxa-5-azabicyclo[2.2.1]heptan-3-yl]phenyl]butanamide] | – | – |
| > 1.45 µM | 0.0511 µM | O=C(NCc1ccc(Cl)cc1)c1ccc([C@@H]2O[C@H]3CN[C@@H]2C3)cc1 [Example 97, N-[(4-Chlorophenyl)methyl]-4-[(1R,3S,4R)-2-oxa-5-azabicyclo[2.2.1]heptan-3-yl]benzamide] | – | – |
| 0.0745 µM | 0.0068 µM | CCOc1n[nH]c(C(=O)Nc2ccc([C@@H]3O[C@H]4CN[C@@H]3C4)cc2)c1Cl [Example 98, 4-Chloro-3-ethoxy-N-[4-[(1R,3S,4R)-2-oxa-5-azabicyclo[2.2.1]heptan-3-yl]phenyl]-1H-pyrazole-5-carboxamide] | – | – |
| 0.127 µM | 0.0035 µM | CCc1n[nH]c(C(=O)Nc2ccc([C@@H]3O[C@H]4CN[C@@H]3C4)cc2)c1Br [Example 99, 4-Bromo-3-ethyl-N-[4-[(1R,3S,4R)-2-oxa-5-azabicyclo[2.2.1]heptan-3-yl]phenyl]-1H-pyrazole-5-carboxamide] | – | – |
| 0.0807 µM | 0.0057 µM | CC(C)Cc1cc(C(=O)Nc2ccc([C@@H]3O[C@H]4CN[C@@H]3C4)cc2)[nH]n1 [Example 101, 3-Isobutyl-N-[4-[(1R,3S,4R)-2-oxa-5-azabicyclo[2.2.1]heptan-3-yl]phenyl]-1H-pyrazole-5-carboxamide] | – | – |

More lines, now with the values behind:

| SMILES | Ki (rat TAAR1) | Ki (mouse TAAR1) | Ki (rat TAAR1; [1]) | Ki (mouse TAAR1; [2]) |
| --- | --- | --- | --- | --- |
| CCc1ncc(C(=O)Nc2ccc([C@@H]3O[C@H]4CN[C@@H]3C4)cc2)cn1 [Example 74, 2-Ethyl-N-[4-[(1R,3S,4R)-2-oxa-5-azabicyclo[2.2.1]heptan-3-yl]phenyl]pyrimidine-5-carboxamide] | 0.19 µM | 0.109 µM | – | – |
| O=C(Nc1ccc([C@@H]2O[C@H]3CN[C@@H]2C3)cc1)c1[nH]nc(C2CC2)c1F [Example 77, 3-Cyclopropyl-4-fluoro-N-[4-[(1R,3S,4R)-2-oxa-5-azabicyclo[2.2.1]heptan-3-yl]phenyl]-11H-pyrazole-5-carboxamide] | – | – | 0.137 µM | 0.0048 µM |
| O=C(Nc1ccc([C@@H]2O[C@H]3CN[C@@H]2C3)cc1)c1ccnc(C(F)(F)F)n1 [Example 81, N-[4-[(1R,3S,4R)-2-Oxa-5-azabicyclo[2.2.1]heptan-3-yl]phenyl]-2-(trifluoromethyl)pyrimidine-4-carboxamide] | 0.189 µM | 0.0271 µM | – | – |
| O=C(Nc1ccc([C@@H]2O[C@H]3CN[C@@H]2C3)cc1)c1[nH]nc(C2CC2)c1Cl [Example 82, 4-Chloro-3-cyclopropyl-N-[4-[(1R,3S,4R)-2-oxa-5-azabicyclo[2.2.1]heptan-3-yl]phenyl]-11H-pyrazole-5-carboxamide] | – | – | 0.0339 µM | 0.0035 µM |
| FC(F)(F)COc1nccc(Nc2ccc([C@@H]3O[C@H]4CN[C@@H]3C4)cc2)n1 [Example 83, N-[4-[(1R,3S,4R)-2-Oxa-5-azabicyclo[2.2.1]heptan-3-yl]phenyl]-2-(2,2,2-trifluoroethoxy)pyrimidin-4-amine] | 0.19 µM | 0.0097 µM | – | – |
| O=C(Nc1ccc(Cl)cc1)c1ccc([C@@H]2O[C@H]3CN[C@@H]2C3)cc1 [Example 85] | 1.08 µM | 0.0164 µM | – | – |
| O=C(Nc1ccc(Br)cc1)c1ccc([C@@H]2O[C@H]3CN[C@@H]2C3)cc1 [Example 86, N-(4-Bromophenyl)-4-[(1R,3S,4R)-2-oxa-5-azabicyclo[2.2.1]heptan-3-yl]benzamide] | 0.809 µM | 0.0102 µM | – | – |
| CCOc1ccc(NC(=O)c2ccc([C@@H]3O[C@H]4CN[C@@H]3C4)cc2)cc1 [Example 88, N-(4-Ethoxyphenyl)-4-[(1R,3S,4R)-2-oxa-5-azabicyclo[2.2.1]heptan-3-yl]benzamide] | > 1.45 µM | 0.0255 µM | – | – |
| O=C(COCCC(F)(F)F)Nc1ccc([C@@H]2O[C@H]3CN[C@@H]2C3)cc1 [Example 90, N-[4-[(1R,3S,4R)-2-Oxa-5-azabicyclo[2.2.1]heptan-3-yl]phenyl]-2-(3,3,3-trifluoropropoxy)acetamide] | 0.398 µM | 0.015 µM | – | – |
| CCCCc1n[nH]c(C(=O)Nc2ccc([C@@H]3O[C@H]4CN[C@@H]3C4)cc2)c1F [Example 92, 3-Butyl-4-fluoro-N-[4-[(1R,3S,4R)-2-oxa-5-azabicyclo[2.2.1]heptan-3-yl]phenyl]-111H-pyrazole-5-carboxamide] | – | – | 0.0879 µM | 0.0033 µM |
| CCCCc1cc(C(=O)Nc2ccc([C@@H]3O[C@H]4CN[C@@H]3C4)cc2)[nH]n1 [Example 93, 3-Butyl-N-[4-[(1R,3S,4R)-2-oxa-5-azabicyclo[2.2.1]heptan-3-yl]phenyl]-1H-pyrazole-5-carboxamide] | 0.0803 µM | 0.0042 µM | – | – |
| O=C(Nc1ccc(Cl)nc1)c1ccc([C@@H]2O[C@H]3CN[C@@H]2C3)cc1 [Example 94, N-(6-Chloro-3-pyridyl)-4-[(1R,3S,4R)-2-oxa-5-azabicyclo[2.2.1]heptan-3-yl]benzamide] | > 1.45 µM | 0.0251 µM | – | – |
| CCOc1ccc(NC(=O)c2ccc([C@@H]3O[C@H]4CN[C@@H]3C4)cc2)cn1 [Example 95, N-(6-Ethoxy-3-pyridyl)-4-[(1R,3S,4R)-2-oxa-5-azabicyclo[2.2.1]heptan-3-yl]benzamide] | > 1.45 µM | 0.0613 µM | – | – |
| O=C(NCc1ccc(C(F)(F)F)cc1)c1ccc([C@@H]2O[C@H]3CN[C@@H]2C3)cc1 [Example 96, 4-[(1R,3S,4R)-2-Oxa-5-azabicyclo[2.2.1]heptan-3-yl]-N-[[4-(trifluoromethyl)phenyl]methyl]benzamide] | > 1.45 µM | 0.0477 µM | – | – |
| CC(C)Cc1n[nH]c(C(=O)Nc2ccc([C@@H]3O[C@H]4CN[C@@H]3C4)cc2)c1F [Example 100, 4-Fluoro-3-isobutyl-N-[4-[(1R,3S,4R)-2-oxa-5-azabicyclo[2.2.1]heptan-3-yl]phenyl]-11H-pyrazole-5-carboxamide] | – | – | 0.0278 µM | 0.0059 µM |
| CC(C)c1n[nH]c(C(=O)Nc2ccc([C@@H]3O[C@H]4CN[C@@H]3C4)cc2)c1Cl [Example 102, 4-Chloro-3-isopropyl-N-[4-[(1R,3S,4R)-2-oxa-5-azabicyclo[2.2.1]heptan-3-yl]phenyl]-11H-pyrazole-5-carboxamide] | – | – | 0.0142 µM | 0.0089 µM |
| CC(C)c1n[nH]c(C(=O)Nc2ccc([C@@H]3O[C@H]4CN[C@@H]3C4)cc2)c1F [Example 103, 4-Fluoro-3-isopropyl-N-[4-[(1R,3S,4R)-2-oxa-5-azabicyclo[2.2.1]heptan-3-yl]phenyl]-11H-pyrazole-5-carboxamide] | – | – | 0.0405 µM | 0.0096 µM |
